Entries after “also recorded” stand apart in the source; their conditions may differ.
Legend:
[1] = tested on: factor XII; assay: Specificity towards pro-enzymes: factor XII; type: biochemical; settings: Factor XII 100 nM; peptide 0-50 μM; CS31 (Fig S7)
Method: Fig S7. Specificity of NNKC9/41 towards other pro-enzymes: Zymogens and their respective active enzymes were incubated with NNKC9/41 or Ser-Ser linear peptide (0-50 μM) and the enzyme activity was monitored using respective chromogenic substrates. Activity of Factor XII(100 nM) and Factor XIIa (20 nM) was measured with the substrate CS31 (1000 µM). Pro-thrombin (100 nM) and thrombin (20 nM) […]
(§1) Bend, IN, USA) except plasminogen and FSAP, which were isolated in house; and pro-uPA was from Grünenthal (Stolberg, Germany). All chromogenic substrates were from Hyphen Biomed (Neuville Sur Oise, France). Experiments were carried out in TBS with Tween-20 (0.1 % wt/ vol) BSA (0.3% wt/vol) and CaCl2 (2 mM). Absorbance at 405 nm was measured over time and the enzyme activity is depicted was measured in duplicates (mean + or -range) and similar results were obtained in 3

[2] = tested on: pro-urokinase; assay: Specificity towards pro-enzymes: pro-urokinase; type: biochemical; settings: pro-uPA 100 nM; peptide 0-50 μM; PNAPEP 1344 (Fig S7)
Method: Fig S7. […]
(§2) µM). Pro-uPA (100 nM) and uPA (20 nM) with PNAPEP 1344 (250 µM). Factor X (50 […]
as §1

[3] = tested on: uPA; assay: Specificity: uPA; type: biochemical; settings: uPA 20 nM; peptide 0-50 μM; PNAPEP 1344 (Fig S7)
Method: Fig S7. […]
as §2, §1

[4] = biological target: T1, pro-FSAP in human plasma (Homo sapiens, UniProt Q14520); assay: Formation of FSAP–alpha2-antiplasmin complexes in plasma; type: biochemical; settings: hirudin plasma 1:12, 1 h at 37 °C; NNKC9/41 0–25 μM, histones 0–25 μg/mL; three donors (Fig 4C)
T1 construct: from tissue; host or cells: human hirudin or citrate plasma from healthy donors, diluted 1:12
Method: (§3) Figure 4 Comparison of different methods to measure pro-FSAP activation in plasma: (A) hirudin plasma (1:12 dilution) was incubated with histones (0–25 μg/mL), NNKC9/41, or its Ser–Ser linear control (0–25 μM) and the fluorogenic substrate turnover (Ac–Ala–Lys–Nle–Arg–AMC) was monitored. (B) From the same experiment as in (A) after 1 h incubation at 37 °C, samples were captured on anti-FSAP coated wells and the conversion of added pro-uPA to active uPA was measured by determining the turnover of the chromogenic substrate PNAPEP1344 (25 μM). (C) From the same experiment as in (A) after 1 h incubation at 37 °C, samples were captured on anti-FSAP coated wells and α2-antiplasmin antibody was used to detect the formation of FSAP−α2-antiplasmin complexes. […] In (F), the samples with MA-FSAP-570 were not analyzed since this antibody would interfere in the sandwich ELISA. […]
(§4) Human citrate plasma (0.38% w/v) or hirudin plasma (25 μg/mL Lepirudin) was obtained from five healthy donors. […] Hydrolysis of the fluorogenic substrates was measured using a Synergy HI plate reader with excitation at 320 nm and emission at 460 nm at 37 °C for 60 min. The maximal velocity was calculated from the linear part of the progress curve. […]

[5] = tested on: pro-FSAP in WT/MI plasma; assay: Substrate turnover in WT/MI plasma; type: biochemical, human; settings: WT/MI citrate plasma 1:12; 25 μM (Fig 6A)
Method: Figure 6 Pro-FSAP activation and clotting in plasma by NNKC9/41: (A) citrate plasma (1:12 dilution) from donors with WT/WT, WT/MI, and MI/MI genotypes and WT-FSAP-deficient plasma (FSAP-DP) were compared. Substrate turnover was monitored after addition of NNKC9/41 or the Ser–Ser linear peptide (25 μM each). Results are shown as mean + range of duplicate wells. (B) Pooled prothrombin-deficient citrated plasma (1:5 dilution) was recalcified with 10 mM CaCl2 and incubated with NNKC9/41 or scrambled control peptide (0–25 μM each) for 60 min at 37 °C in the presence or absence of the FSAP-inhibitory MA-FSAP-38C7 (5 μg/mL). Initiation of clotting was achieved by adding the tissue factor/phospholipid and prothrombin complex concentrate. Clotting time was measured as diluted prothrombin time (dPT) in seconds. Data are the mean of three independent experiments. The relative dPT in % of the untreated control is presented as mean ± standard error (SE) (*p <0.05, two-way analysis of variance (ANOVA) and Bonferroni post-test).
as §4

[6] = tested on: immobilized pro-FSAP; assay: Activation of pro-FSAP captured from plasma on anti-FSAP antibody-coated wells; type: biochemical, human; settings: peptide 0–25 μM in solution, duplicate wells (Fig 5A)
Method: Figure 5 Characteristics of pro-FSAP activation in plasma by NNKC9/41: (A) neutravidin-coated wells were used to capture biotinylated NNKC9/41 or scrambled control peptide (0–25 μM). Hirudin plasma (1:10) was incubated in the wells for 1 h at 37 °C to allow for binding and activation of pro-FSAP. In parallel, wells were coated with rabbit polyclonal anti-FSAP antibody (2 μg/mL) and plasma was added to immobilize FSAP in the presence of solution phase NNKC9/41 or its scrambled control (0–25 μM). Fluorogenic substrate turnover (Ac–Ala–Lys–Nle–Arg–AMC) was monitored. (B) Plasma was incubated with NNKC9/41 and Ser–Ser control (0–50 μM each) in the absence of any antibody or in the presence of MA-FSAP-38C7 or MA-FSAP-32F10 (5 μg/mL) and the FSAP activity was monitored. (C) Plasma was incubated with NNKC9/41 (25 μM) in the presence of MA-FSAP-38C7 or MA-FSAP-32F10 (0–10 μg/mL) and the FSAP activity was monitored. For (A)–(C), results are shown as mean + range of duplicate wells.

[7] = biological target: T1, pro-FSAP in human plasma; assay: Immunocapture of pro-FSAP from plasma and conversion of pro-uPA to uPA; type: biochemical; settings: hirudin plasma 1:12, 1 h at 37 °C; NNKC9/41 0–25 μM, histones 0–25 μg/mL; PNAPEP1344; three donors (Fig 4B)
Method: as §3, §4

T1 sequence (Q14520 24-560): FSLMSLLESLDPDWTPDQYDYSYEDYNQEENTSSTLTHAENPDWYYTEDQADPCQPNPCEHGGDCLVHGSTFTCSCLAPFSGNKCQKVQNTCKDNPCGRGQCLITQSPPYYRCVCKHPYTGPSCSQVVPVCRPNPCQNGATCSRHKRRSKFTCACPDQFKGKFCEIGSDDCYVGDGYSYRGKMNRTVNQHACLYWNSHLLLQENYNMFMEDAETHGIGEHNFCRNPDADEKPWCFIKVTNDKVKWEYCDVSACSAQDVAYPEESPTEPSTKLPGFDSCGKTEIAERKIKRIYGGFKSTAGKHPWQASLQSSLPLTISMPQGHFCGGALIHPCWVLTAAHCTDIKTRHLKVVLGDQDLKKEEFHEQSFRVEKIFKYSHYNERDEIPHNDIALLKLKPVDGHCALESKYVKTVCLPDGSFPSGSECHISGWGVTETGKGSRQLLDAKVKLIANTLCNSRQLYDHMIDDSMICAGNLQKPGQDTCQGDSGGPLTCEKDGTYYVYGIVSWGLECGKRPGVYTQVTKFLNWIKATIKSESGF

With CRGAMWMYKRC [NNKC9/41] the effect on activity [1] was “did not influence the activity”, the effect on activity [2] was “did not influence the activity” and the effect on activity [3] was “did not influence the activity”. For the same sequence, the “FSAP–alpha2-antiplasmin complex formation” value [4] was “weaker than histones; also recorded: concentration-dependent effect”, the substrate turnover [5] was “low turnover” and the “activation of captured pro-FSAP” value [6] was “found to activate pro-FSAP”. For the same sequence, the pro-uPA conversion [7] was “weaker than histones; also recorded: concentration-dependent effect”.
